The subject of assay [1] is MOLM-13 cells. The assay is described as follows: Cell proliferation assay (alamarBlue), MOLM-13. Type of assay: cell-based. The conditions noted are these: Homo sapiens, 96 hours incubation, inhibition of cell proliferation. An outline of the steps:
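Cells in RPMI1640/10% FCS read by alamarBlue fluorescence (ex 530, em 590 nm) after overnight 37 °C incubation, then treated at 1E-5 to 1E-8 M for 96 h. Pre-treatment values subtracted from endpoint values and compared with buffer-only wells; IC50 is 50% proliferation inhibition.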
In general terms: Alamar Blue is a resazurin reagent that responds to reducing activity.

Assay [2] deals with B16F10 cells. The assay is described as follows: Cell proliferation assay (alamarBlue), B16F10. The assay is classed as cell-based. The conditions noted are these: Mus musculus, B16-F10, 96 hours incubation, inhibition of cell proliferation. How it is done:
(§1) In accordance with the invention, the capability of the substances to inhibit cell proliferation was determined Cell viability was determined using the alamarBlue® reagent (Invitrogen) in a Victor X3 Multilabel Reader (Perkin Elmer). The excitation wavelength was 530 nm and the emission wavelenth […].
The B16F10 cells (ATCC, CRL-6475) were sown at a concentration of 300-500 cells/well in 100 μl growth medium (DMEM with phenol red, 10% FCS) on 96-well microtitre plates.
(§2) After an overnight incubation at 37° C., the fluorescence values (CI values) were determined. The plates were then treated with various substance dilutions (1E-5 M, 3E-6 M, 1E-6M, 3E-7 M, 1E-7 M, 3E-8 M, 1E-8 M) and incubated at 37° C. for 72 (MV4-11-, LOX-IMVI cells), 96 (MOLM-13-, B16F10-, MDA-MB-431-, Caov-3 cells), 120 (MOLP-8-, KMS-12-PE cells) or 168 (LAPC-4 cells) hours. The fluorescence values (CO values) were then determined. For the data analysis, the CI values were subtracted from the CO values and the results were compared between cells treated with different dilutions of the substance or with buffer solution only. These were used to calculate the IC 50 values (substance concentration required for 50% inhibition of cell proliferation).

For assay [3], the target named is T1, BRD4 (BD1) (Homo sapiens, UniProt O60885).
T1 construct: with relatively long constructs also being possible, preferably amino acids 44-168; made in house; host or cells: E. coli
The assay can be described thus: Binding assay BRD4/acetylated peptide H4 (TR-FRET protein-protein interaction assay). In short, it runs like this:
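His6-BRD4 BD1 (aa 67-152, E. coli), usually 10 nM, with biotinylated tetra-acetylated H4 peptide in HEPES pH 7.5 buffer; 11 compound concentrations 0.1 nM–20 μM in duplicate, 10 min preincubation, 1 h at 22 °C then ≥3 h at 4 °C. TR-FRET 665/620 ratio; IC50 by 4-parameter fit.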
On the technique in general: Time-resolved FRET reads energy transfer from a long-lived donor to a nearby acceptor.

The test system of assay [4] is MOLP-8 cells. The assay can be described thus: Cell proliferation assay (alamarBlue), MOLP-8. Type of assay: cell-based. The conditions noted are these: Homo sapiens, 120 hours incubation, inhibition of cell proliferation. In short, it runs like this:
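MOLP-8 cells in RPMI1640 with 20% FCS, 4000 cells/well, treated overnight after seeding with substance at 1E-5 to 1E-8 M for 120 h at 37° C. Viability read by alamarBlue fluorescence (ex 530, em 590); pre-treatment values subtracted, compared with buffer-only cells to derive IC50.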

The test system of assay [5] is MV4-11 cells. The assay is described as follows: Cell proliferation assay (alamarBlue), MV4-11. The note with it: Homo sapiens, 72 hours incubation, inhibition of cell proliferation. The assay is classed as cell-based. In short, it runs like this: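 Cells seeded at 5000/well in RPMI1640 + 10% FCS, incubated overnight at 37° C, then treated with compound (1E-5 to 1E-8 M) for 72 h at 37° C. Viability by alamarBlue fluorescence (ex 530/em 590 nm); pre-treatment readings subtracted, IC50 derived versus buffer-treated cells.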

For assay [6], the system named is LOX-IMVI cells. The assay is described as follows: Cell proliferation assay (alamarBlue), LOX-IMVI. The assay is classed as cell-based. The conditions noted are these: Homo sapiens, 72 hours incubation, inhibition of cell proliferation. In short, it runs like this: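 Cells seeded at 1000/well in RPMI1640 with 10% FCS, incubated overnight at 37° C, then treated with dilutions from 1E-5 to 1E-8 M for 72 h. Viability read by alamarBlue fluorescence (ex 530/em 590 nm); pre-treatment values subtracted and compared with buffer-only cells to derive IC50.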

The subject of assay [7] is Caov-3 cells. The assay can be described thus: Cell proliferation assay (alamarBlue), Caov-3. The assay is classed as cell-based. The conditions noted are these: Homo sapiens; inhibition of cell proliferation, Caov-3 (ovarian carcinoma), 96 hours. How it is done:
as §1
The MDA-MB-231 cells (DSMZ, ACC 732) were sown at a concentration of 4000 cells/well in 100 μl growth medium (DMEM/Ham's F12 medium, 10% FCS) on 96-well microtitre plates. The Caov-3 cells (ATCC, HTB-75) were sown at a concentration of 2000 cells/well in 100 μl growth medium (MEM Earle's medium, 10% FCS) on 96-well microtitre plates.
as §2

Assay [8] deals with KMS-12-PE cells. The assay is described as follows: Cell proliferation assay (alamarBlue), KMS-12-PE. Type of assay: cell-based. The conditions noted are these: Homo sapiens, 120 hours incubation, inhibition of cell proliferation. An outline of the steps:
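KMS-12-PE myeloma cells in RPMI1640 with 20% FCS were exposed to compound (1E-5 to 1E-8 M) for 120 h at 37° C. AlamarBlue fluorescence (ex 530, em 590 nm) read before and after treatment; the difference versus buffer-treated cells gave IC50.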

From patent publication US9890147B2 (BAYER PHARMA AKTIENGESELLSCHAFT, priority 2012, dated 2018) come the findings set out here.

The IC50 is the concentration at which inhibition is half-maximal. Read a high IC50 as weaker potency.

As for `CNC(=O)N1N=C(c2ccc(N3CC(F)(F)C3)cc2)c2cc(OC)c(OC)cc2CC1C` (racemic) [Example 181, (±)-1-[4-(3,3-difluoroazetidin-1-yl)phenyl]-7,8-dimethoxy-N,4-dimethyl-4,5-dihydro-3H-2,3-benzodiazepine-3-carboxamide], the IC50 amounted to 300 nM in assay [1], 170 nM in assay [2] and 70 nM in assay [3].

As for `CNC(=O)N1N=C(c2ccc(N3CC(O)C3)cc2)c2cc(OC)c(OC)cc2CC1C` (racemic) [Example 184, (±)-1-[4-(3-hydroxyazetidin-1-yl)phenyl]-7,8-dimethoxy-N,4-dimethyl-4,5-dihydro-3H-2,3-benzodiazepine-3-carboxamide], the results for the IC50 in assay [1], in assay [2] and in assay [3] were 300 nM, 130 nM and 60 nM, respectively.

As for `CNC(=O)N1N=C(c2ccc(N3CC(C)(O)C3)cc2)c2cc(OC)c(OC)cc2CC1C` (racemic) [Example 185, (±)-1-[4-(3-hydroxy-3-methylazetidin-1-yl)phenyl]-7,8-dimethoxy-N,4-dimethyl-4,5-dihydro-3H-2,3-benzodiazepine-3-carboxamide], the IC50 is 280 nM in assay [1], 160 nM in assay [2] and 70 nM in assay [3].

For `CNC(=O)N1N=C(c2ccc(N3CCN(C(C)C)CC3)cc2)c2cc(OC)c(OC)cc2CC1C` (racemic) [Example 186, (±)-1-[4-(4-Isopropylpiperazin-1-yl)phenyl]-7,8-dimethoxy-N,4-dimethyl-4,5-dihydro-3H-2,3-benzodiazepine-3-carboxamide], the IC50 came to 330 nM in assay [1], 240 nM in assay [2] and 130 nM in assay [3].

On to `CNC(=O)N1N=C(c2ccc(N3CC(OC)C3)cc2)c2cc(OC)c(OC)cc2CC1C` (racemic) [Example 187, (±)-7,8-dimethoxy-1-[4-(3-methoxyazetidin-1-yl)phenyl]-N,4-dimethyl-4,5-dihydro-3H-2,3-benzodiazepine-3-carboxamide], for which the IC50 was 330 nM in assay [1], 170 nM in assay [2] and 80 nM in assay [3].

Regarding `CNC(=O)N1N=C(c2ccc(N3CCC(C)(O)CC3)cc2)c2cc(OC)c(OC)cc2CC1C` (racemic) [Example 188, (±)-1-[4-(4-hydroxy-4-methylpiperidin-1-yl)phenyl]-7,8-dimethoxy-N,4-dimethyl-4,5-dihydro-3H-2,3-benzodiazepine-3-carboxamide], the IC50 is 200 nM in assay [1], 100 nM in assay [2] and 50 nM in assay [3].

In the case of `CNC(=O)C1CCN(c2ccc(C3=NN(C(=O)NC)C(C)Cc4cc(OC)c(OC)cc43)cc2)CC1` (racemic) [Example 189, (±)-7,8-dimethoxy-N,4-dimethyl-1-{4-[4-(methylcarbamoyl)piperidin-1-yl]phenyl}-4,5-dihydro-3H-2,3-benzodiazepine-3-carboxamide], the IC50 in assay [1] was 440 nM; in assay [2] it was 210 nM; in assay [3] it was 60 nM.

For `CNC(=O)N1N=C(c2ccc(N3CCN(C)CC3)cc2)c2cc(OC(F)(F)F)ccc2CC1C` (racemic) [Example 250, (±)-N,4-dimethyl-1-[4-(4-methyl-1-piperazinyl)phenyl]-8-(trifluoromethoxy)-4,5-dihydro-3H-2,3-benzodiazepine-3-carboxamide], the IC50 in assay [1] is 140 nM; in assay [2], 100 nM; in assay [3], 40 nM.

Consider `CNC(=O)N1N=C(c2ccc(-c3c(C)nn(C)c3C)cc2)c2cc(OC)c(OC)cc2C[C@@H]1C` [Example 51.2, (4S)-7,8-dimethoxy-N,4-dimethyl-1-[4-(1,3,5-trimethyl-1H-pyrazol-4-yl)phenyl]-4,5-dihydro-3H-2,3-benzodiazepine-3-carboxamide], for which the IC50 in assay [1] turned out to be 110 nM; in assay [4], 50 nM; in assay [5], 50 nM; in assay [6] it was 170 nM; in assay [7] it was 130 nM; in assay [8], 40 nM. For the same compound, the IC50 in assay [3] is 30 nM.

With `CNC(=O)N1N=C(c2ccc(N3CCC3)cc2)c2cc(OC)c(OC)cc2C[C@@H]1C` [Example 128.2, (4S)-1-[4-(azetidin-1-yl)phenyl]-7,8-dimethoxy-N,4-dimethyl-4,5-dihydro-3H-2,3-benzodiazepine-3-carboxamide], the 50% inhibitory concentration (IC50) in assay [1] was found to be 150 nM; in assay [4] it was 50 nM; in assay [5], 70 nM; in assay [6] it was 190 nM; in assay [7] it was 160 nM; in assay [8] it was 50 nM. In addition, the IC50 in assay [3] was determined as 20 nM.

`CNC(=O)N1N=C(c2ccc(N3CCNCC3)cc2)c2cc(OC)c(OC)cc2C[C@@H]1C` [Example 131.1, (4S)-7,8-dimethoxy-N,4-dimethyl-1-[4-(piperazin-1-yl)phenyl]-4,5-dihydro-3H-2,3-benzodiazepine-3-carboxamide]: the IC50 was determined as 110 nM in assay [1], 60 nM in assay [2] and 70 nM in assay [3].

`CNC(=O)N1N=C(c2ccc(-n3nc(-c4ccccc4)cc3C)cc2)c2cc(OC)c(OC)cc2C[C@@H]1C` [Example 147.1, (4S)-7,8-dimethoxy-N,4-dimethyl-1-[4-(5-methyl-3-phenyl-1H-pyrazol-1-yl)phenyl]-4,5-dihydro-3H-2,3-benzodiazepine-3-carboxamide]: the IC50 was found to be 60 nM in assay [1]; 20 nM in assay [4]; 20 nM in assay [5]; 510 nM in assay [6]; 80 nM in assay [7]; 30 nM in assay [8]. In assay [3], the concentration for half-maximal inhibition (IC50) turned out to be 30 nM.

Consider `CNC(=O)N1N=C(c2ccc(-n3nc(-c4ccccc4)cc3C3CC3)cc2)c2cc(OC)c(OC)cc2C[C@@H]1C` [Example 148.1, (4S)-1-[4-(5-cyclopropyl-3-phenyl-1H-pyrazol-1-yl)phenyl]-7,8-dimethoxy-N,4-dimethyl-4,5-dihydro-3H-2,3-benzodiazepine-3-carboxamide], for which the IC50 in assay [1] was 80 nM; in assay [4], 50 nM; in assay [5], 50 nM; in assay [6], 90 nM; in assay [7] it was 130 nM; in assay [8] it was 50 nM. This compound had an IC50 in assay [3] of 30 nM.

In the case of `CNC(=O)N1N=C(c2ccc(-n3ccc(-c4ccc(F)cc4)n3)cc2)c2cc(OC)c(OC)cc2C[C@@H]1C` [Example 150.1, (4S)-1-{4-[3-(4-fluorophenyl)-1H-pyrazol-1-yl]phenyl}-7,8-dimethoxy-N,4-dimethyl-4,5-dihydro-3H-2,3-benzodiazepine-3-carboxamide], the IC50 in assay [1] turned out to be 230 nM; in assay [4] it was 230 nM; in assay [5] it was 130 nM; in assay [6], 340 nM; in assay [7], 340 nM; in assay [8], 180 nM. The IC50 in assay [3] came to 110 nM.
